Data: patent publication US20080171893A1, “Isotopically labeled alpha-keto acids and esters” (Spectra Gases, Inc., priority 2006, published 2008)

How the values were obtained:
[1] = background statement; cited from earlier work
[2] = Concentration study: stability of pyruvic acid solutions in water at higher concentrations; format: physicochemical; parameters: unit not given here; details: light, about 22° C. to about 26° C.
Procedure: Each of these commercial solutions were subjected to light for 6-weeks at temperatures ranging from about 22° C. to about 26° C. At each of the concentrations listed below, it was discovered that the pyruvic acid solutions were stable.

[3] = Titration of aqueous sample 4 with sodium hydroxide, composition by HPLC; format: physicochemical; details: sample 4 titrated with sodium hydroxide to pH of about 6.2
Source text: The molarity of sample 4 was confirmed to be 0.025M by titrating the aqueous sample with sodium hydroxide. […] It was also discovered that at pHs greater than 5.8, such as at a pH of about 6.2, some of the pyruvic acid was present in the form of a dimerized sodium salt. […] As such, it was discovered that to minimize dimmer formation, it may be necessary to control the pH of [1-^13C]pyruvate solutions, and in particular, any aqueous solution should be maintained at a pH of about 6.5 or less, more preferably 6.0 or less, and even more preferably 5.8 or less.

[4] = Shelf storage stability of [1-^13C]pyruvic acid in water, by ^1H and ^13C NMR; format: physicochemical; details: 0.025M in water
Procedure: Samples of isotopically labeled [1-^13C]pyruvic acid, having Formula VI and synthesized as discussed immediately below, were subjected to various conditions as depicted in Table 1, in order to establish the compound's shelf storage stability.
The resulting [1-^13C]pyruvic acid was tested as follows in Table 1:
^1H and ^13C NMR spectra of the distilled [1-^13C]pyruvic acid in water (0.025M) were acquired at the onset of the study and prior to exposing the samples to the various conditions specified in Table 1. ^1H and ^13C NMR spectra were again acquired for each of the samples after being exposed to the aforementioned conditions on a weekly basis for 12-weeks. The spectra acquired after exposure were compared visually and appeared to remain unchanged as compared with the spectra acquired prior to exposure, i.e. the spectra were as expected for [1-^13C]pyruvic acid in water. As such, it was concluded that each of the samples were shelf stable. Similarly, ^1H and ^13C NMR spectra acquired after 17-weeks of exposure remained unchanged as compared with the spectra acquired prior to exposure.

[5] = Sample 1: −10° C., dark, NMR spectra unchanged
[6] = Sample 3: room temperature (about 22° C. to about 26° C.), dark
[7] = Sample 4: room temperature (about 22° C. to about 26° C.), light

| Stability after 6-weeks ([2]; concentration 2.3 in water) | Stability after 6-weeks ([2]; concentration 2.8 in water) | Stability after 6-weeks ([2]; concentration 3.8 in water) | Stability after 6-weeks ([2]; concentration 5.7 in water) | Stability after 6-weeks ([2]; concentration 11.3 in water) | Content of dimerized [1-^13C]pyruvate salt by HPLC [3] | Content of sodium [1-^13C]pyruvate by HPLC [3] | Share of the pyruvic acid accounted for by the dimerized salt [3] | Shelf stability, 12 weeks [4, 5] | Shelf stability, 17 weeks [4, 5] | Shelf stability, 12 weeks ([4]; Sample 2: 4° C., dark) | Shelf stability, 17 weeks ([4]; Sample 2: 4° C., dark) | Shelf stability, 12 weeks [4, 6] | Shelf stability, 17 weeks [4, 6] | Shelf stability, 12 weeks [4, 7] | Shelf stability, 17 weeks [4, 7] | Compound | Solubility in water [1] |
| --- | --- | --- | --- | --- | --- | --- | --- | --- | --- | --- | --- | --- | --- | --- | --- | --- | --- |
| Stable | Stable | Stable | Stable | Stable | – | – | – | – | – | – | – | – | – | – | – | CC(=O)C(=O)O [Formula VIB, 2-oxopropanoic acid] | soluble in water |
| – | – | – | – | – | 2-4% | 89% | 4-6% | Stable | Stable | Stable | Stable | Stable | Stable | Stable | Stable | CC(=O)[13C](=O)O [[1-^13C]pyruvic acid] | – |
